Legend:
GluA1 = GluA1 (Rattus norvegicus, UniProt P19490); test: Two electrode voltage clamp recordings, Xenopus laevis oocytes; type: cell-based; conditions: co-applied with 100 µM glutamate
[1] = test system: GluN2C/D-containing NMDA receptors; test: Potentiation of NMDA receptors, results stated jointly for both subtypes; type: cell-based, rat; conditions: for EC50: read-out: EC50, GluN2C/GluN2D stated jointly, maximally effective concentrations of glutamate and glycine

GluA1, sequence (P19490 19-907): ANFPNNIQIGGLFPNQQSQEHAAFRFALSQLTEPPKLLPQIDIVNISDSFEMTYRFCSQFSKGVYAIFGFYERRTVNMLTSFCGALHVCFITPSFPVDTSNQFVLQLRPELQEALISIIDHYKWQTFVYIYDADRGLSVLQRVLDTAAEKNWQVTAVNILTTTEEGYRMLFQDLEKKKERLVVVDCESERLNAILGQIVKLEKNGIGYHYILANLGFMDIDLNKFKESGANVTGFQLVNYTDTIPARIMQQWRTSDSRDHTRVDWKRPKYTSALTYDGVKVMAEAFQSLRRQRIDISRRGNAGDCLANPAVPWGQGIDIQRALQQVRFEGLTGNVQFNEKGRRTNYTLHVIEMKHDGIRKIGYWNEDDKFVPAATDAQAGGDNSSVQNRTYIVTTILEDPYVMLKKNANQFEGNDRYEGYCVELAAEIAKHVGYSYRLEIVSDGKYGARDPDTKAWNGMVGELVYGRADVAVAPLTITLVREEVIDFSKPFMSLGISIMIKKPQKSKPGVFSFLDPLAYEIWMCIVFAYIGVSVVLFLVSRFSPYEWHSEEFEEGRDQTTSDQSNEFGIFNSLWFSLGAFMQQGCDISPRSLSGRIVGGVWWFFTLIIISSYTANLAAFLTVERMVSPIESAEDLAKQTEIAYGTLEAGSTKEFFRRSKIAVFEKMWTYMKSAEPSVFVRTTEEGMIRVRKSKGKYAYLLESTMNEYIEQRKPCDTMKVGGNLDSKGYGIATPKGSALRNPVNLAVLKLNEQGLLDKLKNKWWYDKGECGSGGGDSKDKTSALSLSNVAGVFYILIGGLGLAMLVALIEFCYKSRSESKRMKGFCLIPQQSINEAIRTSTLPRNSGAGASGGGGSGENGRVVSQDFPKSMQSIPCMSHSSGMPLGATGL

With `COc1ccc(OCC2c3ccc(OC)cc3CCN2C(=O)c2cccc(Br)c2)cc1` (stereo not drawn) [compound 118, (3-bromophenyl)(6-methoxy-1-((4-methoxyphenoxy)methyl)-3,4-dihydroisoquinolin-2(1H)-yl)methanone] the “effect on homomeric GluA1 responses” value (GluA1) was “no effects”.
With `COc1ccc(OCC2c3cc(OC)c(OC)cc3CCN2C(=S)Nc2ccccc2)cc1` (stereo not drawn) [compound 211] the “activity on GluN2C- or GluN2D-containing receptors” value (from here on “activity”) [1] was “loss of activity”.
For `COc1ccc(OCC2c3cc(OC)c(OC)cc3CCN2C(=O)c2cccc(CCl)c2)cc1` (stereo not drawn) [compound 96, (3-(chloromethyl)phenyl)(6,7-dimethoxy-1-((4-methoxyphenoxy)methyl)-3,4-dihydroisoquinolin-2(1H)-yl)methanone], the “effect on homomeric GluA1 responses” value (GluA1) was “no effects”.
`COc1ccc(OCC2c3ccc(OC)c(OC)c3CCN2C(=O)c2cccc(Cl)c2)cc1` (stereo not drawn) [compound 120, (3-chlorophenyl)(5,6-dimethoxy-1-((4-methoxyphenoxy)methyl)-3,4-dihydroisoquinolin-2(1H)-yl)methanone] was tested, and the “activity” value [1] was “inactive”.
In the case of `COc1ccc(OCC2c3cc(OC)c(OC)cc3CCN2C(=O)c2ccc3ccccc3c2)cc1` (stereo not drawn) [compound 138, (6,7-dimethoxy-1-((4-methoxyphenoxy)methyl)-3,4-dihydroisoquinolin-2(1H)-yl)(naphthalen-2-yl)methanone], the “effect on homomeric GluA1 responses” value (GluA1) is reported as “no effects”.
In the case of `COc1ccc(/C=C/C2c3ccc(OC)cc3CCN2C(=O)c2cccc(Br)c2)cc1` (stereo not drawn) [compound 159, (E)-(3-bromophenyl)(6-methoxy-1-(4-methoxystyryl)-3,4-dihydroisoquinolin-2(1H)-yl)methanone], the “effect on homomeric GluA1 responses” value (GluA1) is reported as “no effects”.
`COc1ccc(OCC2c3ccc(OC)c(OC)c3CCN2C(=O)c2cccc(Br)c2)cc1` (stereo not drawn) [compound 121, (3-bromophenyl)(5,6-dimethoxy-1-((4-methoxyphenoxy)methyl)-3,4-dihydroisoquinolin-2(1H)-yl)methanone] was tested, and the “activity” value [1] was “inactive”.
In the case of `COc1ccc(SCC2c3cc(OC)c(OC)cc3CCN2C(=O)c2ccccc2)cc1` (stereo not drawn) [compound 127, (6,7-dimethoxy-1-(((4-methoxyphenyl)thio)methyl)-3,4-dihydroisoquinolin-2(1H)-yl)(phenyl)methanone], the “activity” value [1] is reported as “eliminated activity”.
In the case of `COc1ccc(OCC2c3cc(OC)c(OC)cc3CCN2C(=S)Nc2cccc(F)c2)cc1` (stereo not drawn) [compound 213], the “activity” value [1] is reported as “loss of activity”.
For `COc1ccc(OCC2c3cc(OC)c(OC)cc3CCN2C(=O)CN2CCOCC2)cc1` (stereo not drawn) [compound 140, 1-(6,7-dimethoxy-1-((4-methoxyphenoxy)methyl)-3,4-dihydroisoquinolin-2(1H)-yl)-2-morpholinoethanone], the “effect on homomeric GluA1 responses” value (GluA1) was “no effects”.
For `COc1cc2c(cc1OC)C(COc1ccc([N+](=O)[O-])cc1)N(C(=O)c1cccc(Cl)c1)CC2` (stereo not drawn) [compound 129, (3-chlorophenyl)(6,7-dimethoxy-1-((4-nitrophenoxy)methyl)-3,4-dihydroisoquinolin-2(1H)-yl)methanone], the “activity” value [1] was “no detectable activity”.
In the case of `COc1ccc(OCC2c3ccc(OC)cc3CCN2C(=O)c2cccc(Cl)c2)cc1` (stereo not drawn) [compound 117, (3-chlorophenyl)(6-methoxy-1-((4-methoxyphenoxy)methyl)-3,4-dihydroisoquinolin-2(1H)-yl)methanone], the “effect on homomeric GluA1 responses” value (GluA1) is reported as “no effects”.
`COc1ccc(OCC2c3cc(C)c(C)cc3CCN2C(=O)c2cccc(Br)c2)cc1` (stereo not drawn) [compound 123, (3-bromophenyl)(1-((4-methoxyphenoxy)methyl)-6,7-dimethyl-3,4-dihydroisoquinolin-2(1H)-yl)methanone] showed an EC50 [1] of roughly 1 µM.
With `COc1cc2c(cc1OC)C(COc1ccc([N+](=O)[O-])cc1)N(C(=O)c1cccc(Br)c1)CC2` (stereo not drawn) [compound 130, ((3-bromophenyl)(6,7-dimethoxy-1-((4-nitrophenoxy)methyl)-3,4-dihydroisoquinolin-2(1H)-yl)methanone)] the “activity” value [1] was “no detectable activity”.
With `COc1ccc(/C=C/C2c3ccc(OC)cc3CCN2C(=O)c2cccc(Cl)c2)cc1` (stereo not drawn) [compound 158, (E)-(3-chlorophenyl)(6-methoxy-1-(4-methoxystyryl)-3,4-dihydroisoquinolin-2(1H)-yl)methanone] the “effect on homomeric GluA1 responses” value (GluA1) was “no effects”.
With `COc1ccc(OCC2c3cc(OC)c(OC)cc3CCN2S(=O)(=O)c2cccc(Cl)c2)cc1` (stereo not drawn) [compound 217] the “activity” value [1] was “eliminated all activity”.
`COc1cc2c(cc1OC)C(COc1ccc(N)cc1)N(C(=O)c1cccc(Br)c1)CC2` (stereo not drawn) [compound 133, ((1-((4-aminophenoxy)methyl)-6,7-dimethoxy-3,4-dihydroisoquinolin-2(1H)-yl)(3-bromophenyl)methanone)] was tested, and the “activity” value [1] was “no detectable activity”.
For `COc1ccc(/C=C/C2c3cc(OC)c(OC)cc3CCN2C(=O)c2cccc(Br)c2)cc1` (stereo not drawn) [compound 157, (E)-(3-bromophenyl)(6,7-dimethoxy-1-(4-methoxystyryl)-3,4-dihydroisoquinolin-2(1H)-yl)methanone], the “effect on homomeric GluA1 responses” value (GluA1) was “no effects”.
For `COc1ccc(OCC2c3cc(OC)c(OC)cc3CCN2C(=O)c2cc(Cl)cc(Cl)c2)cc1` (stereo not drawn) [compound 87, (3,5-dichlorophenyl)(6,7-dimethoxy-1-((4-methoxyphenoxy)methyl)-3,4-dihydroisoquinolin-2(1H)-yl)methanone], the “effect on homomeric GluA1 responses” value (GluA1) was “no effects”.
In the case of `COc1ccc(OCC2c3cc(OC)c(OC)cc3CCN2C(=S)Nc2cccc(Br)c2)cc1` (stereo not drawn) [compound 214], the “activity” value [1] is reported as “loss of activity”.
With `COc1ccc(CCC2c3cc(OC)c(OC)cc3CCN2C(=O)c2cccc(Br)c2)cc1` (stereo not drawn) [compound 162, (3-bromophenyl)(6,7-dimethoxy-1-(4-methoxyphenethyl)-3,4-dihydroisoquinolin-2(1H)-yl)methanone] the “effect on homomeric GluA1 responses” value (GluA1) was “no effects”.
In the case of `CCOc1ccc(OCC2c3cc(OC)c(OC)cc3CCN2C(=O)c2cccc(Cl)c2)cc1` (stereo not drawn) [compound 100, (3-chlorophenyl)(1-((4-ethoxyphenoxy)methyl)-6,7-dimethoxy-3,4-dihydroisoquinolin-2(1H)-yl)methanone], the “activity” value [1] is reported as “no detectable activity”.
For `COc1cc2c(cc1OC)C(COc1ccc(N)cc1)N(C(=O)c1cccc(Cl)c1)CC2` (stereo not drawn) [compound 132, ((1-((4-aminophenoxy)methyl)-6,7-dimethoxy-3,4-dihydroisoquinolin-2(1H)-yl)(3-chlorophenyl)methanone)], the “activity” value [1] was “no detectable activity”.
In the case of `COc1ccc(OCC2c3cc4c(cc3CCN2C(=O)c2cccc(Cl)c2)OCO4)cc1` (stereo not drawn) [compound 111, (3-chlorophenyl)(5-((4-methoxyphenoxy)methyl)-7,8-dihydro-[1,3]dioxolo[4,5-g]isoquinolin-6(5H)-yl)methanone], the “effect on homomeric GluA1 responses” value (GluA1) is reported as “no effects”.
For `COc1cc2c(cc1OC)C(COc1ccc([N+](=O)[O-])cc1)N(C(=O)c1ccccc1)CC2` (stereo not drawn) [compound 128, (6,7-dimethoxy-1-((4-nitrophenoxy)methyl)-3,4-dihydroisoquinolin-2(1H)-yl)(phenyl)methanone], the “activity” value [1] was “no detectable activity”.
With `COc1ccc(OCC2c3cc(C)c(C)cc3CCN2C(=O)c2cccc(Cl)c2)cc1` (stereo not drawn) [compound 122, (3-chlorophenyl)(1-((4-methoxyphenoxy)methyl)-6,7-dimethyl-3,4-dihydroisoquinolin-2(1H)-yl)methanone] the EC50 [1] was roughly 1 µM.
For `COc1ccc(OCC2c3cc(OC)c(OC)cc3CCN2C(=S)Nc2cccc(Cl)c2)cc1` (stereo not drawn) [compound 212], the “activity” value [1] was “loss of activity”.
With `COc1ccc(/C=C/C2c3cc(OC)c(OC)cc3CCN2C(=O)c2ccccc2)cc1` (stereo not drawn) [compound 155, (E)-(6,7-dimethoxy-1-(4-methoxystyryl)-3,4-dihydroisoquinolin-2(1H)-yl)(phenyl)methanone] the “effect on homomeric GluA1 responses” value (GluA1) was “no effects”.
In the case of `COc1ccc(CCC2c3cc(OC)c(OC)cc3CCN2C(=O)c2cccc(Cl)c2)cc1` (stereo not drawn) [compound 161, (3-chlorophenyl)(6,7-dimethoxy-1-(4-methoxyphenethyl)-3,4-dihydroisoquinolin-2(1H)-yl)methanone], the “effect on homomeric GluA1 responses” value (GluA1) is reported as “no effects”.
`COc1ccc(OCC2c3cc(OC)c(OC)cc3CCN2C(=O)c2cccc(C#N)c2)cc1` (stereo not drawn) [compound 98, 3-(6,7-dimethoxy-1-((4-methoxyphenoxy)methyl)-1,2,3,4-tetrahydroisoquinoline-2-carbonyl)benzonitrile] was tested, and the “effect on homomeric GluA1 responses” value (GluA1) was “no effects”.
In the case of `COc1cc2c(cc1OC)C(COc1ccc(N)cc1)N(C(=O)c1ccccc1)CC2` (stereo not drawn) [compound 131, ((1-((4-aminophenoxy)methyl)-6,7-dimethoxy-3,4-dihydroisoquinolin-2(1H)-yl)(phenyl)methanone)], the “activity” value [1] is reported as “no detectable activity”.
Work on `COc1ccc(OCC2c3ccc(OCc4ccccc4)cc3CCN2C(=O)c2cccc(Cl)c2)cc1` (stereo not drawn) [compound 82, (6-(benzyloxy)-1-((4-methoxyphenoxy)methyl)-3,4-dihydroisoquinolin-2(1H)-yl)(3-chlorophenyl)methanone] yielded an EC50 [1] of 0.3 to 0.4 µM.
With `CCOc1ccc(OCC2c3cc(OC)c(OC)cc3CCN2C(=O)c2cccc(Br)c2)cc1` (stereo not drawn) [compound 101, (3-bromophenyl)(1-((4-ethoxyphenoxy)methyl)-6,7-dimethoxy-3,4-dihydroisoquinolin-2(1H)-yl)methanone] the “activity” value [1] was “no detectable activity”.
`COc1ccc(OCC2c3cc(OC)c(OC)cc3CCN2S(=O)(=O)c2ccccc2)cc1` (stereo not drawn) [compound 216] was tested, and the “activity” value [1] was “eliminated all activity”.
`COc1ccc(OCC2c3cc(OC)c(OC)cc3CCN2Cc2ccccc2)cc1` (stereo not drawn) [compound 141, 2-benzyl-6,7-dimethoxy-1-((4-methoxyphenoxy)methyl)-1,2,3,4-tetrahydroisoquinoline] was tested, and the “activity” value [1] was “eliminated all activity”.
For `COc1ccc(OCC2c3cc(OC)c(OC)cc3CCN2C(=S)Nc2cccc(C)c2)cc1` (stereo not drawn) [compound 215], the “activity” value [1] was “weak potentiating activity”.
